Reference: article PMC5522078, “Discovery and characterization of small molecules targeting the DNA-binding ETS domain of ERG in prostate cancer” (Oncotarget, 2017)

What was measured:
ERG-ETS domain = biological target: T1, ERG-ETS domain (Homo sapiens, UniProt P11308); experiment: NMR-monitored titration (15N-HSQC) with ERG-ETS domain; conditions: 15N-HSQC titration, 1:1 binding isotherm; pH 6.5; read-out: KD for interaction with recombinant ERG-ETS domain
T1 construct: A pET28a plasmid encoding residues 307–400 of the ERG-ETS domain; His6 (cleaved yes); made in house; host or cells: E. coli BL21 (λDE3)
T1 sequence (P11308 307-400): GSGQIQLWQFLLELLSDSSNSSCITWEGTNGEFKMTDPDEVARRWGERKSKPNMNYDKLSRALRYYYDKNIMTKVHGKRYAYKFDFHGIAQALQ
Experimental: ERG-ETS domain expression and purification. A pET28a plasmid encoding residues 307–400 of the ERG-ETS domain was expressed in E. coli BL21 (λDE3). Cultures of 1 L were grown at 37°C in M9 media supplied with 3 gm/L ^13C6-glucose and/or 1 gm/L ^15NH4Cl. Cells were allowed to grow to O.D.600 = 0.6 and protein expression was induced by adding 1 mM IPTG. After an induction time of 4 h, cells were harvested by centrifugation and stored at −80 °C for at least 1 round of freeze/thaw. Cells were resuspended in 40 mL of lysis buffer for every 1 L of culture. Cells were lysed by passing through 5 rounds of homogenization and 10 mins of sonication. The cell lysate centrifuged at 15k rpm for 1 hr, and the supernatant subjected to nickel column purification. The column was washed using 25 mM imidazole (50 mM phosphate, 1 M NaCl, pH 7.4) and proteins were eluted with 1 M imidazole. Fractions containing the ETS domain were confirmed by SDS-PAGE and pooled. […] NMR data were recorded at 25 or 28°C on cryoprobe-equipped 850 MHz Bruker Avance III spectrometer. Data were processed and analyzed using NMRpipe and Sparky. […] NMR-monitored titrations. Interactions of compounds with the ERG-ETS domain were monitored via sensitivity-enhanced ^15N-HSQC spectra. […] Chemical shift perturbations were calculated from the combined amide ^1H^N and ^15N shift changes as Δδ = [(0.2 × ΔδN)^2 + (ΔδH)^2]^1/2. […]

VCaP cells = tested on: VCaP cells; set-up: method as in PMID 21559405; conditions: read-out: IC50 for cytotoxicity in VCaP cells; cited from earlier work

| Structure (SMILES) | Kd (ERG-ETS domain) [mM] | IC50 (VCaP cells) [µM] |
| --- | --- | --- |
| CC(C)c1ccc(C=N/N=C2\NC(=O)[C@@H](CC(=O)O)S2)cc1 (stereo in doubt) [VPC-18005, 2-((Z)-2-(((Z)-4-isopropylbenzylidene)hydrazono)-4-oxothiazolidin-5-yl)acetic acid] | ~3 | – |
| COc1ccc(C(=O)CC2(O)C(=O)Nc3c(Cl)ccc(Cl)c32)cc1 (centres unmarked) [YK-4-279, reference compound] | – | 10 |
